In patent US7919495B2, “Pyridyl non-aromatic nitrogen-containing heterocyclic-1-carboxylate compound” (Astellas Pharma, Inc., priority 2005, dated 2011) one finds IC50 and minimal effective dose data, which are given here for eight compounds.

Assay [1] has as its target FAAH (rat brain homogenate) (Rattus norvegicus, UniProt P97612). Nature of the assay: biochemical.
Assay [2] concerns the target T1, FAAH in human bladder epithelial cancer-derived cell line 5678 cells (Homo sapiens, UniProt O00519).
T1 construct: host or cells: human bladder epithelial cancer-derived cell line ('5678' [sic], HTB-9)
T1 sequence (O00519 1-579): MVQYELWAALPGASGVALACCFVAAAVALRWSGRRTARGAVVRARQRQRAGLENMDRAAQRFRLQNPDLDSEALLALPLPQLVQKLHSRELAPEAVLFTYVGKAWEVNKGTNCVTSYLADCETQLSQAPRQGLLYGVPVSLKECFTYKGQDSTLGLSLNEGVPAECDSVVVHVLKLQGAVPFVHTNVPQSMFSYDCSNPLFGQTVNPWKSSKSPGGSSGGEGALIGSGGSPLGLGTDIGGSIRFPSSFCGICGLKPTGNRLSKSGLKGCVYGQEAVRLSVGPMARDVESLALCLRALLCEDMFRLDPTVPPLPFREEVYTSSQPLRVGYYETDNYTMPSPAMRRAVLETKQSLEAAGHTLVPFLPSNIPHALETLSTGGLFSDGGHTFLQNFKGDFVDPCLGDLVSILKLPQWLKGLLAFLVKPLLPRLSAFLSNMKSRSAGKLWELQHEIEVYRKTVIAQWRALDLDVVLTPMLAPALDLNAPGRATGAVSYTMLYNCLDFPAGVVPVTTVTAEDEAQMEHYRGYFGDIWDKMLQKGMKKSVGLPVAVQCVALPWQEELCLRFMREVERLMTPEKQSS
Kind of assay: Screening for FAAH activity-inhibiting substance with human bladder epithelial cancer-derived cell (IC50, Table 64). Format: cell-based. The procedure:
Screening for FAAH Activity-Inhibiting Substance with Human Bladder Epithelial Cancer-Derived Cell
(1) Screening for FAAH Activity-Inhibiting Substance:
Human bladder epithelial cancer-derived cell line […] cells (HTB-9; ATCC) were seeded on a 48-well cell culture plate in an amount of 1×10^5 cell/well, using 10% fetal bovine serum (HyClone)-containing RPMI1640 medium (Invitrogen). After incubated at 37° C. for at least 12 hours, the cells were washed with 400 μl/well of a buffer (Hank's Balanced Salt Solution, 20 mM Hepes-NaOH (pH 7.4)). A test substance dissolved in DMSO was added to a substrate solution (the above buffer containing 3 μCi/ml radiolabeled anandamide (Anandamide [ethanolamine 1-3H]) and 10 μM anandamide) so as to have a concentration of from 0.003 nM to 30 nM. As a control, DMSO alone was added. 100 μl/well of the substrate solution was added to the above cells, and incubated in a CO2 incubator at 37° C. for 30 minutes. Next, the cell culture plate was transferred onto ice, and the substrate solution was removed by suction; and 75 μl/well of a cytolytic solution (the above buffer containing 0.5% Triton X-100, and 10 μM of FAAH-inhibitory activity-having compound, 3′-carbamoylbiphenyl-3-yl cyclohexylcarbamate (URB597; Cayman chemical; Kathuria et al., Nature Med., Vol. 9, pp. 76-81, 2003)) was added thereto, followed by stirring. The resulting cell lysate in every well was individually transferred into a 1.5 ml sample tube, to which was added 150 μl of 1:1 (by volume) chloroform/methanol solution, followed by vortexing. This was centrifuged (15000 rpm, 2 minutes), whereby the decomposed product, ethanolamine (ethanolamine 1-^3H) was separated in the upper layer (water/methanol layer) and the unreacted radiolabeled anandamide was in the lower layer (chloroform layer). 25 μl of the upper layer was transferred into a 96-well organic solvent-resistant white microplate (PicoPlate-96; Perkin Elmer), 150 μl of Microscint-20 (Perkin Elmer) was added thereto, and this was measured with a microplate scintillation counter (TopCount™; Beckman). As compared with the control, the substance that gave a decreased value was selected as an FAAH activity-inhibiting substance.
(2) Measurement of IC50 Value of FAAH Activity-Inhibiting Substance:
A test compound dissolved in DMSO to have a concentration of 10 mM was dissolved in the substrate solution so as to have a varying concentration of from 0.003 nM to 30 μM. According to the method mentioned above, the compound was analyzed for its influence on FAAH activity. As a negative control, DMSO was used. As a positive control, URB597 was added to the substrate solution to have a concentration of 10 μM. Based on the measured value of the positive control, 0%, and on the measured value of the negative control, 100%, IC50 value of the test substance was obtained.

Assay [3] relates to CPA-induced urinary frequency in rat. Nature of the assay: animal or person. Format: in vivo. The note with it: po, 48 h, read-out: effective dose (increase of reduced effective bladder capacity).

FAAH (rat brain homogenate), sequence (P97612 whole entry): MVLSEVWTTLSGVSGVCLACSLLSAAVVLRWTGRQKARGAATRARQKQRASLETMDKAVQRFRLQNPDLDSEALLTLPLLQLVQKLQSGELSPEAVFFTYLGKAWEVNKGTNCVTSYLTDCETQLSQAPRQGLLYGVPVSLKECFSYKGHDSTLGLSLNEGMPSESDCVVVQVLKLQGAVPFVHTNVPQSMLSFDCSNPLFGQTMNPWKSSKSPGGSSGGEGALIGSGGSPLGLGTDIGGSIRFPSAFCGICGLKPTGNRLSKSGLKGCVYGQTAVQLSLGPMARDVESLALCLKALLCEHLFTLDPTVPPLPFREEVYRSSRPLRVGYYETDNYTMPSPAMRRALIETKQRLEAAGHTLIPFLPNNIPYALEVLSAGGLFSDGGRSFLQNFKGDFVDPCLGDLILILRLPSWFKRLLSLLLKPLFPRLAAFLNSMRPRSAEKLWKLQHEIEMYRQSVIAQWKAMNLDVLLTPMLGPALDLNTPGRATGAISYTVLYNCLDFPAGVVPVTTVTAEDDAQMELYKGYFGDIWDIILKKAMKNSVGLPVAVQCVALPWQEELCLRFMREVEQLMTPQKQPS

As a reminder, the IC50 is the concentration at which inhibition is half-maximal. Read a high IC50 as a need for much substance. As to `O=C(O)c1cncc(OC(=O)N2CCC(Oc3ccc(OCCC4CCCCC4)cc3)CC2)c1` [Example 228], the figures for the IC50 in assay [1] and in assay [2] were 0.19 nM and 0.22 nM, respectively. Further, the minimal effective dose in assay [3] is 1 mg/kg.

Take `N#Cc1cccc(COc2ccc(C(=O)N3CCN(C(=O)Oc4cccnc4)CC3)cc2)c1` [Example 151]: the results for the concentration for half-maximal inhibition (IC50) in assay [1] and in assay [2] were 27 nM and 0.17 nM, respectively.

`O=C(O)C(=O)O.O=C(O)C1CCN(c2cncc(OC(=O)N3CCC(Oc4ccc(OCc5cccc(F)c5)cc4)CC3)c2)CC1` [Example 261, 1-(5-{[(4-{4-[(3-fluorobenzyl)oxy]phenoxy}piperidin-1-yl)carbonyl]oxy}pyridin-3-yl)piperidine-4-carboxylic acid oxalate] came in with an IC50 in assay [2] of 0.54 nM. Moreover, in assay [3], the minimal effective dose was 3 mg/kg.

In assay [2], `Cc1cccc(N2CCC(CCCC3CCN(C(=O)Oc4cncc(C(=O)O)c4)CC3)CC2)n1` [Example 313] showed an IC50 of 0.89 nM. Besides, the minimal effective dose in assay [3] was 1 mg/kg.

`O=C(O)c1cncc(OC(=O)N2CCC(Oc3ccc(OCc4cccc(F)c4)cc3)CC2)c1` [Example 218, 5-{[(4-{4-[(3-fluorobenzyl)oxy]phenoxy}piperidin-1-yl)carbonyl]oxy}nicotinic acid] yielded an IC50 in assay [2] of 0.44 nM. In assay [3], the minimal effective dose is 3 mg/kg.

`NC(=O)c1cncc(OC(=O)N2CCC(CCc3cccc(C(=O)N4CCCC4)c3)CC2)c1` [Example 359]: the IC50 in assay [1] was determined as 1.3 nM; in assay [2], 0.52 nM. For the same compound, the minimal effective dose in assay [3] came to 1 mg/kg.

Regarding `O=C(Oc1cccnc1)N1CCC(Oc2ccc(OCc3cccc(F)c3)cc2)CC1` [Example 2, (pyridin-3-yl) 4-{4-[(3-fluorobenzyl)oxy]phenoxy}piperidine-1-carboxylate], the results for the IC50 in assay [1] and in assay [2] were 0.14 nM and 0.11 nM, respectively. The minimal effective dose in assay [3] was 3 mg/kg.

For `CN(C)C(=O)c1cccc(CCC2CCN(C(=O)Oc3cncc(C(N)=O)c3)CC2)c1` [Example 325], in assay [2], it took 0.54 nM to reach half-maximal inhibition (IC50). Moreover, in assay [3], the minimal effective dose came to 1 mg/kg.
